This is an account of results in patent US20160222021A1, “ARYL ETHER-BASE KINASE INHIBITORS” (BRISTOL-MYERS SQUIBB COMPANY, priority 2013, published 2016).

In experiment [1] the target is AAK1 (full length human) in HEK293F cells (Homo sapiens, UniProt Q2M2I8). Kind of experiment: HEK293F Cell-Based Assay (phospho-mu2 Western blot). Conditions: 3 hours, IC50 ranges. As to the method: HEK293F cells were cultured in media containing DMEM (Gibco, cat. #11965), 10% FBS (SAFC Biosciences, cat. #12103C), 1×GPS (glutamine, penicillin and streptomycin). On day one, cells were plated on a 10 cm dish so that they are ˜80% confluent at time of transfection. Roughly 12 million cells were in a 10 cm dish at time of transfection. On day two, each dish was transfected with 48 ug DNA and 144 ul Lipofectamine 2000 (Invitrogen, cat. #11668-019). The DNA was comprised of a mixture (per 10 cm dish) containing 3 ug AAK1/HA/pIRES (full length human, NCBI accession no. NP_055726.2), 45 μg Flag/AP2MI/pcDNA (full length human), and 1.5 ml OPTI-MEM. The Lipofectamine 2000 is made up of a mixture (per 10 cm dish) containing 144 μl Lipofectamine 2000 and 1.5 ml OPTI-MEM. Each mixture was transferred to individual 15 ml tubes and incubated at RT for 5 minutes, and then the two mixes were combined and incubated at RT for 20 minutes. Growth media was then aspirated from each 10 cm plate and replaced with 10 ml of DMEM+10% FBS (no GPS). Finally, 3 ml DNA/Lipofectamine mix was added to each 10 cm dish and mix gently followed by incubate of plate overnight at 37° C. and 5% CO2.
On day three, compounds were diluted in 100% DMSO at 1000× final concentration, followed by 3-fold serial dilutions for a total of 5 concentrations tested. Four compounds were tested per 10 cm dish. One ul of each compound dilution was then pipetted into a deep-well, 96-well plate, followed by addition of 500 μl DMEM+0.5% FBS into each well for a 2× final concentration of each compound. Cells were resuspended in a 10 cm dish by simple pipetting (HEK293 cells come off the plate that easy at this point) and then transferred to a 50 ml conical tube and pelleted by centrifugation at 1000 rpm for 5 min. Cell pellets were then resuspended in 2.75 ml DMEM+0.5% FBS per 10 cm dish and 100 μl of cell suspension transferred into each well of 96-well TC plate. Finally, 100 μl of 2× compound diluted in DMEM+0.5% FBS was then added into wells containing cell suspension for a 1× final concentration. Plates were then incubated at 37° C. and 5% CO2 for 3 hours followed by transferring of cell suspensions from each well into 12-tube PCR strips. The PCR strips were spun in a tip rack at 1000 rpm for 5 minutes to pellet cells and media was then removed by pipetting without disturbing the cell pellet.
To prepare for Western Blot analysis, cell pellets were resuspend in 40 ul 1× LDS-PAGE sample buffer (Invitrogen, cat. # NP0008)+2× Halt phophatase and protease inhibitor cocktail (Thermo Scientific, cat. #1861284), followed by sonicating each with microtip sonicator set at 5 for 8-10 seconds. Five ul of 10× NuPage Sample Reducing Agent (with 50 mM DTT) was to each sample followed by heat denaturing at 70 C for 10 min on PCR machine. A total of 10 μl per sample was loaded into each lane of a 4-20% Tris-Glycine Criterion 26-well gel (Biorad, cat. #345-0034) for the phospho-mu2 blot and 10 μl per lane in a 4-12% Bis-Tris (+MES buffer) NuPAGE 26-well gel (Invitrogen, cat. # WG1403BX10) for the mu2 blot. For controls, 2 ng of phospho-mu2 or 20 ng mu2/Flag proteins were loaded in the last well of each gel. After SDS-PAGE, samples on each gel were transferred to PVDF membrane using an iBlot and membranes were blocked for one hour in TBST+5% milk, followed by wash 3× for 5-10 min with TBST. Criterion gels were probed with rabbit anti-phospho-mu2 (1:5000; a rabbit polyclonal antibody produced by New England Peptide and affinity purified at Lexicon) in TBST+5% BSA, whereas, NuPAGE gels were probed with mouse anti-Flag (1:500; Sigma, cat. # F1804) in TBST+5% milk, and these primary antibodies were incubated overnight at 4° C. on a rocker. […]

In experiment [2] the target is T1, GST-Xa-hAAK1 (Homo sapiens, UniProt Q2M2I8).
T1 construct: made in house
Description: AAK1 Kinase Assay. The format is biochemical. Conditions: ATP 22 μM. As to the method:
The assays were performed in U-bottom 384-well plates. The final assay volume was 30 μl prepared from 15 μl additions of enzyme and substrates (fluoresceinated peptide (5-FAM)-Aha-[…]-NH2 and ATP) and test compounds in assay buffer (10 mM Tris-HCL pH 7.4, 10 mM MgCl2, 0.01% Tween-20 and 1.0 mM DTT). The reactions were initiated by the combination of bacterially expressed, GST-Xa-hAAK1 with substrates and test compounds. The reactions were incubated at room temperature for 3 hours and terminated by adding 60 μl of 35 mM EDTA buffer to each sample. The reactions were analyzed on the Caliper LabChip 3000 (Caliper, Hopkinton, Mass.) by electrophoretic separation of the fluorescent substrate and phosphorylated product. […] The final concentration of reagents in the assays are ATP, 22 μM; (5-FAM)-Aha-[…]-NH2, 1.5 μM; GST-Xa-hAAK1, 3.5 nM; and DMSO, 1.6%. Dose response curves were generated to determine the concentration required inhibiting 50% of kinase activity (IC50). Compounds were dissolved at 10 mM in dimethylsulfoxide (DMSO) and evaluated at eleven concentrations. IC50 values were derived by non-linear regression analysis.

The term IC50 denotes the midpoint of a concentration-inhibition curve.

Chain of AAK1 (full length human) in HEK293F cells (Q2M2I8 1-822 limits assumed): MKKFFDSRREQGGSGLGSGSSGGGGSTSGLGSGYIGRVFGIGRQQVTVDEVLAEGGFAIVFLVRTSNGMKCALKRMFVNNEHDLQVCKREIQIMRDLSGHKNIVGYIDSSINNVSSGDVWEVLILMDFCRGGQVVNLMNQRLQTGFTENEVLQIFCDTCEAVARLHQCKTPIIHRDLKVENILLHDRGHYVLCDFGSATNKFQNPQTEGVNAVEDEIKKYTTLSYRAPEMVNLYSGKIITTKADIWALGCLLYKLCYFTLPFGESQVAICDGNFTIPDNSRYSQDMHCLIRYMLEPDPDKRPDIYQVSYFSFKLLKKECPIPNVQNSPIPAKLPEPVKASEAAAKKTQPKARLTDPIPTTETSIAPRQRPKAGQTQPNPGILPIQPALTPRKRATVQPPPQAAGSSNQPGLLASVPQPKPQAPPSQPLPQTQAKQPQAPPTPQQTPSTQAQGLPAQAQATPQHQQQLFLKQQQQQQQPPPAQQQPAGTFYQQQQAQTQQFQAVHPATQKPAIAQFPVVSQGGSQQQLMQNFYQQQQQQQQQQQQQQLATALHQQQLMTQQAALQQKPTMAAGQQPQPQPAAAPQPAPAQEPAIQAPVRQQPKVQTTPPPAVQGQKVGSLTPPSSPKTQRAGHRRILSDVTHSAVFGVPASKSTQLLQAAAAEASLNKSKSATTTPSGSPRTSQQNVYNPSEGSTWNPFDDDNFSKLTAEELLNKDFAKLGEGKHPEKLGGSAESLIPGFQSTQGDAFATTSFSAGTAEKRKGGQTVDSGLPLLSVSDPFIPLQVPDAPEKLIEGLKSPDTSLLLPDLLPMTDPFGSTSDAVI
T1 sequence (Q2M2I8 whole entry): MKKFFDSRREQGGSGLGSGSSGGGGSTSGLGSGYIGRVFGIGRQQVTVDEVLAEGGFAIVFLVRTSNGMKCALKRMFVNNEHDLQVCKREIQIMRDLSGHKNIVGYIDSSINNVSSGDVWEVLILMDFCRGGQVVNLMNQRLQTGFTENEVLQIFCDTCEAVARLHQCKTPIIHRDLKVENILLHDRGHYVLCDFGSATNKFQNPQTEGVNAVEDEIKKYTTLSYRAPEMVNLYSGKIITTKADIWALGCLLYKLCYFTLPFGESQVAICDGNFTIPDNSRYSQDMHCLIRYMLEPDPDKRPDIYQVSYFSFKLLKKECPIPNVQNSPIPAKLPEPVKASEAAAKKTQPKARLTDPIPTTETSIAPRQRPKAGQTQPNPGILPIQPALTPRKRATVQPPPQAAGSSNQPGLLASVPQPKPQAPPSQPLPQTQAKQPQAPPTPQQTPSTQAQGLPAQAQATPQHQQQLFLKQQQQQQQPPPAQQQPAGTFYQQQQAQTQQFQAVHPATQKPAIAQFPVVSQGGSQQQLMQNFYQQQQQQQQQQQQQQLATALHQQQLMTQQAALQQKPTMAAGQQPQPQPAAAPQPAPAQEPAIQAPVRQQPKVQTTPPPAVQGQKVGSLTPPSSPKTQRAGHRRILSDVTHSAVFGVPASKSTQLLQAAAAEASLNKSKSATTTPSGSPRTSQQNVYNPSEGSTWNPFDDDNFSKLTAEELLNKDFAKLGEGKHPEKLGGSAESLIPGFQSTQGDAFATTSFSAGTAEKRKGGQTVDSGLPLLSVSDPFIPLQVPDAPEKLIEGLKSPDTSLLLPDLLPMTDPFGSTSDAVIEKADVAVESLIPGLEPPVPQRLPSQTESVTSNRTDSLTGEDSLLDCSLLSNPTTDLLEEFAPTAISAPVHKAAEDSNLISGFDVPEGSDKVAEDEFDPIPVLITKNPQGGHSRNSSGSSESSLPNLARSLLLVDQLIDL

As to `COC(=O)Nc1cc2c(cn1)COc1cc(OCC(C)(N)CC(C)C)ccc1-2` (racemic) [Example 60, methyl (8-((2-amino-2,4-dimethylpentyl)oxy)-5H-chromeno[3,4-c]pyridin-2-yl)carbamate], the IC50 in experiment [1] and in experiment [2] (IC50 ranges) was 1 to 10 nM in each case.
As for `CC(=O)Nc1cc2c(cn1)COc1c-2ccc(OCC(C)(N)CC(C)C)c1OC(F)F` (racemic) [Example 65, N-(8-((2-amino-2,4-dimethylpentyl)oxy)-7-(difluoromethoxy)-5H-chromeno[3,4-c]pyridin-2-yl)acetamide], the IC50 in experiment [1] and in experiment [2] (IC50 ranges) was less than 1 nM throughout.
As for `COc1c(OCC(C)(N)CC(C)C)ccc2c1OCc1cnc(NC(C)=O)cc1-2` (racemic) [Example 66, N-(8-((2-amino-2,4-dimethylpentyl)oxy)-7-methoxy-5H-chromeno[3,4-c]pyridin-2-yl)acetamide], the 50% inhibitory concentration (IC50) was 1 to 10 nM in experiment [1] and less than 1 nM in experiment [2] (IC50 ranges).
`COC(=O)Nc1cc2c(cn1)COc1c-2ccc(OCC(C)(N)CC(C)C)c1OC(F)F` (racemic) [Example 76, methyl (8-((2-amino-2,4-dimethylpentyl)oxy)-7-(difluoromethoxy)-5H-chromeno[3,4-c]pyridin-2-yl)carbamate]: the figures for the half-inhibitory concentration (IC50) in experiment [1] and in experiment [2] (IC50 ranges) were 1 to 10 nM and less than 1 nM, respectively.
Regarding `CC(C)C[C@H](N)COc1cc2c(cc1Cl)-c1ccncc1[C@@H](C(F)(F)F)O2` (single isomer, unassigned) [Example 27b], the IC50 in experiment [1] and in experiment [2] (IC50 ranges) was 1 to 10 nM throughout.
On to `CC(C)C[C@H](N)COc1ccc2c(c1)OC(C(F)(F)F)c1cnccc1-2` (single isomer, unassigned; diastereomer 1) [Example 52], for which the concentration for half-maximal inhibition (IC50) in experiment [1] and in experiment [2] (IC50 ranges) was 10 to 100 nM throughout.
With `CC1Oc2cc(OCC(N)CC(C)(C)F)ccc2-c2ccncc21` (stereo not drawn) [Example 26, 4-fluoro-4-methyl-1-(5-methyl-5H-chromeno[3,4-c]pyridin-8-yloxy)pentan-2-amine], the IC50 lay in the range of 10 to 100 nM in experiment [1] and 1 to 10 nM in experiment [2] (IC50 ranges).
In experiment [1], `COC(=O)Nc1cc2c(cn1)COc1cc(OCC(C)(N)CC(C)C)ccc1-2` (stereo not drawn) [Example 70, methyl (8-((2-amino-2,4-dimethylpentyl)oxy)-5H-chromeno[3,4-c]pyridin-2-yl)carbamate] gave an IC50 of 1 to 10 nM.
As for `CC(=O)Nc1cc2c(cn1)COc1c-2ccc(OC[C@@](C)(N)CC(C)C)c1OC(F)F` [Example 87, (S)—N-(8-((2-amino-2,4-dimethylpentyl)oxy)-7-(difluoromethoxy)-5H-chromeno[3,4-c]pyridin-2-yl)acetamide], the IC50 in experiment [2] (IC50 ranges) is less than 1 nM.
On to `CC(C)C[C@](C)(N)COc1ccc2c(c1Cl)OCc1cnc(N)cc1-2` [Example 88, (S)-8-((2-amino-2,4-dimethylpentyl)oxy)-7-chloro-5H-chromeno[3,4-c]pyridin-2-amine], for which, in experiment [2] (IC50 ranges), the IC50 is less than 1 nM.
The same measure, in the same setting: under `COC(=O)Nc1cc2c(cn1)COc1c-2ccc(OC[C@@](C)(N)CC(C)C)c1OC(F)F` [Example 89, (S)-methyl (8-((2-amino-2,4-dimethylpentyl)oxy)-7-(difluoromethoxy)-5H-chromeno[3,4-c]pyridin-2-yl)carbamate] stands less than 1 nM.
Turning to `CC(C)C[C@](C)(N)COc1ccc2c(c1)OCc1cnc(N)cc1-2` [Example 90, (S)-8-((2-amino-2,4-dimethylpentyl)oxy)-5H-chromeno[3,4-c]pyridin-2-amine], the IC50 in experiment [2] (IC50 ranges) lay within 1 to 10 nM.
Same read-out and setting: the value for `CC(=O)Nc1cc2c(cn1)COc1c-2ccc(OC[C@@](C)(N)CC(C)C)c1Cl` [Example 91, (S)—N-(8-((2-amino-2,4-dimethylpentyl)oxy)-7-chloro-5H-chromeno[3,4-c]pyridin-2-yl)acetamide] was less than 1 nM; that for `COC(=O)Nc1cc2c(cn1)COc1c-2ccc(OC[C@@](C)(N)CC(C)C)c1Cl` [Example 92, (S)-methyl (8-((2-amino-2,4-dimethylpentyl)oxy)-7-chloro-5H-chromeno[3,4-c]pyridin-2-yl)carbamate] was 1 to 10 nM.
In the case of `CCOC(=O)Nc1cc2c(cn1)COc1c-2ccc(OC[C@@](C)(N)CC(C)C)c1Cl` [Example 93, (S)-ethyl (8-((2-amino-2,4-dimethylpentyl)oxy)-7-chloro-5H-chromeno[3,4-c]pyridin-2-yl)carbamate], in experiment [2] (numeric values), the IC50 is 0.89 nM.
Still for that read-out and setting: under `COC(=O)Nc1cc2c(cn1)COc1cc(OC[C@@](C)(N)CC(C)C)c(F)cc1-2` [Example 95, (S)-methyl (8-((2-amino-2,4-dimethylpentyl)oxy)-9-fluoro-5H-chromeno[3,4-c]pyridin-2-yl)carbamate] stands 2.1 nM.
As for `[2H]C1([2H])Oc2cc(OC[C@@](C)(N)CC(C)C)ccc2-c2cc(NC(=O)OC)ncc21` [Example 97, (S)-methyl (8-((2-amino-2,4-dimethylpentyl)oxy)-5,5-deutero-5H-chromeno[3,4-c]pyridin-2-yl)carbamate], the IC50 in experiment [2] (IC50 ranges) lay in the range of 1 to 10 nM.
On the same count and under the same terms, the value for `CC(=O)Nc1cc2c(cn1)COc1cc(OC[C@@](C)(N)CC(C)C)cc(F)c1-2` [Example 98, (S)—N-(8-((2-amino-2,4-dimethylpentyl)oxy)-10-fluoro-5H-chromeno[3,4-c]pyridin-2-yl)acetamide] was 1 to 10 nM; that for `CC(C)C[C@](C)(N)COc1cc(F)c2c(c1)OCc1cnc(N)cc1-2` [Example 99, (S)-8-((2-amino-2,4-dimethylpentyl)oxy)-10-fluoro-5H-chromeno[3,4-c]pyridin-2-amine] was 1 to 10 nM; that for `CC(=O)Nc1cc2c(cn1)COc1cc(OC[C@H](CC(C)C)NC(C)=O)ccc1-2` [Example 100, (S)—N-(8-((2-acetamido-4-methylpentyl)oxy)-5H-chromeno[3,4-c]pyridin-2-yl)acetamide] was 100 to 1200 nM.
As for `CC(=O)Nc1cc2c(cn1)COc1cc(OC[C@H](CC(C)C)NS(C)(=O)=O)ccc1-2` [Example 101, (S)—N-(8-((4-methyl-2-(methylsulfonamido)pentyl)oxy)-5H-chromeno[3,4-c]pyridin-2-yl)acetamide], the IC50 in experiment [2] (IC50 ranges) fell in the range of 10 to 100 nM.
For the compound `Cc1cc2c(cn1)c(=O)oc1cc(OC[C@@](C)(N)CC(C)C)ccc12` [Example 102, (S)-8-((2-amino-2,4-dimethylpentyl)oxy)-2-methyl-5H-chromeno[3,4-c]pyridin-5-one], the IC50 in experiment [2] (numeric values) turned out to be 556 nM.
Take `Cc1cc2c(cn1)c(=O)oc1cc(OC[C@@](C)(N)CC(C)C)c(Cl)cc12` [Example 103, (S)-8-((2-amino-2,4-dimethylpentyl)oxy)-9-chloro-2-methyl-5H-chromeno[3,4-c]pyridin-5-one]: in experiment [2] (IC50 ranges), the IC50 lay in the range of 100 to 1200 nM.
